Data from PubChem BioAssay (NCI).
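GI50 is the concentration that inhibits growth by half. At the TGI there is no net growth.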

Legend:
Experiment in all cases: NCI tumour cell line growth inhibition, 384-well format
SF-539 CNS = system: SF-539 CNS
SK-MEL-5 melanoma = system: SK-MEL-5 melanoma
NCI/ADR-RES ovarian = system: NCI/ADR-RES ovarian
OVCAR-3 ovarian = system: OVCAR-3 ovarian
DU-145 prostate = system: DU-145 prostate
CCRF-CEM leukemia = system: CCRF-CEM leukemia
MOLT-4 leukemia = system: MOLT-4 leukemia
RXF 393 renal = system: RXF 393 renal
UACC-257 melanoma = system: UACC-257 melanoma
NCI-H322M lung = system: NCI-H322M lung
OVCAR-8 ovarian = system: OVCAR-8 ovarian
SF-295 CNS = system: SF-295 CNS
M14 melanoma = system: M14 melanoma
BT-549 breast = system: BT-549 breast
IGROV1 ovarian = system: IGROV1 ovarian
MDA-MB-468 breast = system: MDA-MB-468 breast
MALME-3M melanoma = system: MALME-3M melanoma
CAKI-1 renal = system: CAKI-1 renal
T-47D breast = system: T-47D breast
UACC-62 melanoma = system: UACC-62 melanoma
LOX IMVI melanoma = system: LOX IMVI melanoma
NCI-H23 lung = system: NCI-H23 lung
A549 NSCLC = system: A549 NSCLC
SR leukemia = system: SR leukemia
KM12 colon = system: KM12 colon
NCI-H460 NSCLC = system: NCI-H460 NSCLC
MCF7 breast = system: MCF7 breast
HL-60(TB) leukemia = system: HL-60(TB) leukemia
MDA-MB-435 melanoma = system: MDA-MB-435 melanoma

Structure (SMILES): CCOCC1(COCC)CCC(c2[nH]ncc2CN(C)CCNC)CC1
- TGI (SF-539 CNS): > 100 µM
- GI50 (SK-MEL-5 melanoma): 11.5 µM
- TGI (SK-MEL-5 melanoma): 34.5 µM
- GI50 (NCI/ADR-RES ovarian): > 100 µM
- TGI (NCI/ADR-RES ovarian): > 100 µM
- GI50 (OVCAR-3 ovarian): 1.75 µM
- TGI (OVCAR-3 ovarian): > 100 µM
- GI50 (DU-145 prostate): > 100 µM
- TGI (DU-145 prostate): > 100 µM
- GI50 (CCRF-CEM leukemia): 53.3 µM
- TGI (CCRF-CEM leukemia): > 100 µM
- GI50 (MOLT-4 leukemia): 20 µM
- TGI (MOLT-4 leukemia): > 100 µM
- GI50 (RXF 393 renal): > 100 µM
- TGI (RXF 393 renal): > 100 µM
- GI50 (UACC-257 melanoma): 14.8 µM
- TGI (UACC-257 melanoma): 30.2 µM
- GI50 (NCI-H322M lung): > 100 µM
- TGI (NCI-H322M lung): > 100 µM
- GI50 (OVCAR-8 ovarian): > 100 µM
- TGI (OVCAR-8 ovarian): > 100 µM
- GI50 (SF-295 CNS): 6.65 µM
- TGI (SF-295 CNS): > 100 µM
- GI50 (M14 melanoma): 17.6 µM
- TGI (M14 melanoma): 44.7 µM
- GI50 (BT-549 breast): 32.7 µM
- TGI (BT-549 breast): > 100 µM
- GI50 (IGROV1 ovarian): 2.77 µM
- TGI (IGROV1 ovarian): > 100 µM
- GI50 (MDA-MB-468 breast): 1.81 µM
- TGI (MDA-MB-468 breast): 35.6 µM
- GI50 (MALME-3M melanoma): 8.61 µM
- TGI (MALME-3M melanoma): 36.3 µM
- GI50 (CAKI-1 renal): 3.69 µM
- TGI (CAKI-1 renal): > 100 µM
- GI50 (T-47D breast): 27.3 µM
- TGI (T-47D breast): > 100 µM
- GI50 (UACC-62 melanoma): 12.6 µM
- TGI (UACC-62 melanoma): 33.3 µM
- GI50 (LOX IMVI melanoma): 29.6 µM
- TGI (LOX IMVI melanoma): > 100 µM
- GI50 (NCI-H23 lung): > 100 µM
- TGI (NCI-H23 lung): > 100 µM
- GI50 (A549 NSCLC): 18.1 µM
- TGI (A549 NSCLC): > 100 µM
- GI50 (SR leukemia): 0.386 µM
- TGI (SR leukemia): 9.85 µM
- GI50 (KM12 colon): > 100 µM
- TGI (KM12 colon): > 100 µM
- GI50 (NCI-H460 NSCLC): 8.56 µM
- TGI (NCI-H460 NSCLC): > 100 µM
- GI50 (MCF7 breast): 29.9 µM
- TGI (MCF7 breast): > 100 µM
- GI50 (HL-60(TB) leukemia): 0.123 µM
- TGI (HL-60(TB) leukemia): 2.68 µM
- GI50 (MDA-MB-435 melanoma): 58.7 µM
- TGI (MDA-MB-435 melanoma): > 100 µM
